Assay results: patent US20130287918A1, “MICROBICIDAL COMPOSITION” (DUPONT NUTRITION DIOSCIENCES APS, priority 2010, published 2013)

Columns and labels:
[1] = test system: pool of 4 yeast species (Candida tropicalis DCS 604, Zygosaccharomyces bailii DCS 1167 and DCS 1172, Pichia spp DCS 1175); assay: BBQ sauce challenge study, yeast count on YGC agar; assay type: cell-based; details: for Cell counts on YGC-agar (yeast growth): BBQ sauce 20° C., Potassium Sorbate 0.1%
Procedure: Samples of the BBQ sauce (formula in table 9) with and without the experimental blend were produced in the Danisco Culinary Application Laboratory, Brabrand.
Each batch was split (scheme table 8) in probes of 90 gram and placed in sterile jars. 42 probes of each batch were inoculated with the desired level of yeast and 5 probes of each batch were inoculated with mould spores, respectively at a targeted inoculation rate of 500 to 1000 CFU/g.
(§1) The viscous products were thoroughly mixed (2 minutes) within 10 minutes of inoculation to ensure that the inoculum was evenly distributed throughout the product. One sample remained un-inoculated and was used as negative control to monitor the native contamination flora. All samples were incubated at ambient temperature (20° C.) and assayed for yeast, plated on an appropriate yeast medium, until confirmed failure (≧1.0E+06 CFU/g) or until visible mould growth, respectively. In parallel, the growth of lactic acid bacteria and total cell count were monitored on MRS and PCA in all the batches and the non-inoculated blind, respectively.
(§2) In total 8 strains, from available from Danisco's Culture Collection (DCS) (Danisco A/S, Brabrand, Denmark) were employed as one yeast and one mould pool in the respective BBQ sauce. Originally, they were isolated e.g. from spoiled ketchup, mayonnaise. Salsa dressing or obtained from official culture collections such as DMSZ.
(§3) Before each experiment, a stock culture of each yeast, maintained at −86° C. in suitable broth containing glycerol 50% (v/v), was propagated through two consecutive growth cycles in suitable media (YGC-agar (VWR) pH 5.1+0.2; YM Broth (Becton, Dickinson and company) at pH 6.0±0.2 at and temperature (25° C.). The overnight cultures are diluted in saline solution to obtain working cultures. A cocktail of the yeasts was generated by adding equal cell counts of each culture into a sterile container and mixed appropriately. The yeast cocktail was diluted and inoculated into the product in order to achieve the final desired concentration. Pool counts were verified via plate count.
The BBQ sauces were assayed at time zero, day 2, day 5, day 12, weekly until week 10 (day 68) and bi-weekly thereafter until week 19 (day 131). CFU/g was detected for 3 samples from each batch inoculated with yeast. Before each sampling (closed jar), the sample was thoroughly mixed. 10 gram sample were aseptically pulled from each jar and diluted with peptone water. Each sample was stomached (1 min, normal setting) plated in duplicate onto YGC agar (VWR) and MRS (VWR), and incubated at 25° C. for 5 days and 37° C. for 3 days, respectively.

pool of 4 yeast species = assay: Ranch dressing challenge study, yeast count on YGC agar; assay type: cell-based; details: for Cell counts on YGC-agar to determine the yeast growth: 0.1% in Ranch dressing, inoculation 500 CFU/g, 20° C.
Description: Samples of the regular ranch dressing (formula in table 24) with and without the experimental blend were produced in the Danisco Culinary Application Laboratory, Brabrand.
Each batch was split (scheme table 23) in probes of 90 gram and placed in sterile jars. 36 probes of each batch were inoculated with the desired level of yeast and 5 probes of each batch were inoculated with mould spores, respectively at a targeted inoculation rate of 500 to 1000 CFU/g.
as §1, with “(≧1.0E+05” for “(≧1.0E+06”
as §2, with “from” for “from available from”, “Danisco's in-house” for “Danisco's”, “1” for “one”, “Ranch dressing.” for “BBQ sauce.”, “mayonnaise,” for “mayonnaise.”
as §3, with “count. Mould spores were prepared as follows: approx. 2 ml of sterile demineralised water was used to wash the spores off an out-grown mould cultivar (minimum 5 day old plate). This suspension is transferred to a sterile container. Pool counts were verified via plate count.” for “count.”
The Ranch dressing was assayed a time zero, day 3, day 7, day 14, bi-weekly thereafter until week 13 (day 90) and every 4 to 6 weeks until week 29. CFU/g was detected for 3 samples from each batch inoculated with yeast. Before each sampling (closed jar), the sample was thoroughly mixed. 10 gram sample were aseptically pulled from each jar and diluted with peptone water. Each sample was stomached (1 min, normal setting) plated in duplicate onto YGC agar (VWR), PC agar and MRS agar (VWR), and incubated at 25° C. for 5 and 7 days and 37° C. for 3 days, respectively.

[2] = Ranch dressing challenge study, pH measurement; assay type: physicochemical; details: 0.1%, non-inoculated sample
Description: A pH measurement of non-inoculated sample material took place at every sampling date using a Mettler Toledo Seven Easy pH meter.

C/C=C/C=C/C(=O)[O-].[K+] [Potassium Sorbate, potassium sorbate]
initial reduction of the inoculated cell load ([1]; BBQ sauce, YM10 1% and 0.5%, potassium sorbate): 3 log
Cell counts on YGC-agar (yeast growth) ([1]; day 0, YM10 1%, MG200 1%, Competitor product 1.25%): 6.07E+02 CFU/g
Cell counts on YGC-agar (yeast growth) ([1]; day 2, YM10 1%, MG200 1%, Competitor product 1.25%): 1.47E+02 CFU/g
Cell counts on YGC-agar (yeast growth) ([1]; day 5, YM10 1%, MG200 1%, Competitor product 1.25%): 2.50E+01 CFU/g
Cell counts on YGC-agar (yeast growth) ([1]; day 12, YM10 1%, MG200 1%, Competitor product 1.25%): 1.00E+00 CFU/g
Cell counts on YGC-agar (yeast growth) ([1]; day 19, YM10 1%, MG200 1%, Competitor product 1.25%): 1.00E+00 CFU/g
Cell counts on YGC-agar (yeast growth) ([1]; day 26, YM10 1%, MG200 1%, Competitor product 1.25%): 1.00E+00 CFU/g
Cell counts on YGC-agar (yeast growth) ([1]; day 41, YM10 1%, MG200 1%, Competitor product 1.25%): 1.00E+00 CFU/g
Cell counts on YGC-agar (yeast growth) ([1]; day 49): 1.00E+00 CFU/g
Cell counts on YGC-agar (yeast growth) ([1]; day 55): 1.00E+00 CFU/g
Cell counts on YGC-agar (yeast growth) ([1]; day 68): 1.00E+00 CFU/g
Cell counts on YGC-agar (yeast growth) ([1]; day 82): 1.00E+00 CFU/g
Cell counts on YGC-agar (yeast growth) ([1]; day 104): 1.00E+00 CFU/g
Cell counts on YGC-agar (yeast growth) ([1]; day 117): 1.00E+00 CFU/g
Cell counts on YGC-agar (yeast growth) ([1]; day 131): 2.50E+01 CFU/g
initial reduction of the inoculated cell load (pool of 4 yeast species; Ranch dressing 20° C., FP1000 D1/D2 1%, MicroGARD 200 1%, potassium sorbate 0.1%): 2 log
Cell counts on YGC-agar to determine the yeast growth (pool of 4 yeast species; day 0): 3.20E+02 CFU/g
Cell counts on YGC-agar to determine the yeast growth (pool of 4 yeast species; day 3): 1.70E+02 CFU/g
Cell counts on YGC-agar to determine the yeast growth (pool of 4 yeast species; day 7): 7.50E+01 CFU/g
Cell counts on YGC-agar to determine the yeast growth (pool of 4 yeast species; day 14): 1.00E+01 CFU/g
Cell counts on YGC-agar to determine the yeast growth (pool of 4 yeast species; day 28): 1.00E+01 CFU/g
Cell counts on YGC-agar to determine the yeast growth (pool of 4 yeast species; day 42): 1.00E+01 CFU/g
Cell counts on YGC-agar to determine the yeast growth (pool of 4 yeast species; day 56): 1.00E+01 CFU/g
Cell counts on YGC-agar to determine the yeast growth (pool of 4 yeast species; day 64): 1.00E+01 CFU/g
Cell counts on YGC-agar to determine the yeast growth (pool of 4 yeast species; day 90): 1.00E+01 CFU/g
Cell counts on YGC-agar to determine the yeast growth (pool of 4 yeast species; day 157): 1.00E+01 CFU/g
Cell counts on YGC-agar to determine the yeast growth (pool of 4 yeast species; day 198): 1.00E+01 CFU/g
pH development of the Ranch dressing batch ([2]; day 0): 4.02
pH development of the Ranch dressing batch ([2]; day 3): 4.00
pH development of the Ranch dressing batch ([2]; day 7): 4.02
pH development of the Ranch dressing batch ([2]; day 14): 4.00
pH development of the Ranch dressing batch ([2]; day 28): 3.94
pH development of the Ranch dressing batch ([2]; day 42): 3.96
pH development of the Ranch dressing batch ([2]; day 56): 3.96
pH development of the Ranch dressing batch ([2]; day 64): 3.95
pH development of the Ranch dressing batch ([2]; day 90): 3.96
pH development of the Ranch dressing batch ([2]; day 157): 3.92
pH development of the Ranch dressing batch ([2]; day 198): 3.94
